{"source": "patent US20240373851A1", "about": "“PEST CONTROL COMPOSITION AND PEST CONTROL METHOD” (SUMITOMO CHEMICAL COMPANY, LIMITED, priority 2021, published 2024)", "format_in_all_cases": "in vivo", "key": {"[1]": {"tested_on": "German cockroaches (Blattella germanica)", "test": "Test Example 1: control test against German cockroaches, spray in chamber (cup without filter paper)", "conditions": "adult German cockroaches; 1.5 mL sprayed; concentration [%]: broflanilide 0.01, imiprothrin 0.01, cypermethrin 0.01, alone or mixed; 120 minutes after spraying", "procedure": "(§1) Next, the usefulness of the inventive composition for controlling pests will be indicated by Test Examples. In general, the control effect to be expected when treated with a mixture obtained by mixing given two or three types of active ingredient compounds is determined by the Colby's calculation equation represented by the following [Equation 1] and [Equation 2].\n(§2) [formula] • P: moribund and mortal rates (%) when treated with an active ingredient compound X in the concentration of m [ppm] • Q: moribund and mortal rates (%) when treated with an active ingredient compound Y in the concentration of n [ppm] • EA: moribund and mortal rates (%) when treated with an active ingredient compound X in the concentration of m [ppm] and an active ingredient compound Y in the concentration of n [ppm] (hereinafter referred to as expected value A) […]\n(§3) Regarding the synergistic effect of three types of the active ingredient compounds, in case where the moribund and mortal rates (%) when actually treated with a mixture obtained by mixing three types of the active ingredient compounds exceed the expected value A calculated by using the moribund and mortal rates (%) when actually treated with a mixture obtained by mixing two types of the active ingredient compounds among three types thereof, and the moribund and mortal rates (%) calculated when actually treated the remaining one type of the active ingredient compound, or the expected value B (%) calculated from the moribund and mortal rates (%) when actually treated with each of three types of the active ingredient compounds alone, it was determined that the synergistic effect exists.\nIn a plastic cup (diameter: 12.4 cm, height: 10.2 cm), ten adult German cockroaches (Blattella germanica) (five males and five females each) were released, and the plastic cup was placed in the center of the bottom of a box-shaped chamber (46 cm×46 cm×70 cm in height). […] After a lapse of 120 minutes from spraying, the number of dead and moribund individuals was examined, and moribund and mortal rates (%) were determined by the equation 3 below. […]"}, "[2]": {"tested_on": "German cockroaches (Blattella germanica)", "test": "Test Example 8: control test against German cockroaches, spray in chamber", "conditions": "adult German cockroaches; 1.5 mL sprayed; concentration [%]: nicofluprole 0.01, imiprothrin 0.01, phenothrin 0.1, alone or mixed; 45 minutes after spraying", "procedure": "as §1, §2\nas §3, with “exists. […]” for “exists.”"}, "[3]": {"tested_on": "German cockroaches (Blattella germanica)", "test": "Test Example 9: control test against German cockroaches, spray in chamber", "conditions": "adult German cockroaches; 1.5 mL sprayed; concentration [%]: broflanilide 0.02, imiprothrin 0.01, permethrin 0.05, alone or mixed; 420 minutes after spraying", "excerpt": "(§4) Next, the usefulness of the inventive composition for controlling pests will be indicated by Test Examples.\n(§5) (hereinafter referred to as expected value A)\n(§6) (hereinafter referred to as expected value B)\n(§7) In a plastic cup (diameter: 12.4 cm, height: 10.2 cm) lined with a filter paper, ten adult German cockroaches (Blattella germanica) (five males and five females each) were released, and the plastic cup was placed in the center of the bottom of a box-shaped chamber (46 cm×46 cm×70 cm in height). From the height of 60 cm, 1.5 mL of each of formulations prepared by dissolving a single agent of any one of broflanilide, imiprothrin and permethrin, or a mixed agent of two or more thereof in a mixture of isopropyl alcohol and Isopar M at a mixing ratio of 1:9 was sprayed under a spray pressure of 0.041 MPa. After a lapse of 420 minutes from spraying, the number of dead and moribund individuals was examined, and moribund and mortal rates (%) were determined by the above equation 3. The test was performed through two replicates. Dead individuals are completely immobile individuals, and moribund individuals are individuals who cannot get up when turned on their backs."}, "[4]": {"tested_on": "German cockroaches (Blattella germanica)", "test": "Test Example 5: control test against German cockroaches, spray in chamber", "conditions": "adult German cockroaches; 1.5 mL sprayed; concentration [%]: nicofluprole 0.01, imiprothrin 0.01, cyfluthrin 0.0002, alone or mixed; 45 minutes after spraying", "excerpt": "as §4, §5, §6\nas §7, with “each) […]” for “each)”, “nicofluprole,” for “broflanilide,”, “cyfluthrin,” for “permethrin,”, “45” for “420”"}}, "data": [{"smiles": "C#CCN1CC(=O)N(COC(=O)[C@@H]2C(C=C(C)C)C2(C)C)C1=O", "note": "(mixture of isomers) [Imiprothrin, imiprothrin]", "values": [{"measurement": "Moribund and mortal rates [%] after 120 minutes", "setting": "[1]", "result": 15, "unit": "%"}, {"measurement": "Moribund and mortal rates [%] after 45 minutes", "setting": "[2]", "result": 65, "unit": "%"}, {"measurement": "Moribund and mortal rates [%] after 420 minutes", "setting": "[3]", "result": 15, "unit": "%"}, {"measurement": "Moribund and mortal rates [%] after 45 minutes", "setting": "[4]", "result": 65, "unit": "%"}]}]}
